US20240408169A1 (priority 2023, published 2024)
*1 amine or outer side, *2 acyl side, *3 side chain or, on linkers, in order; H or OH if unused. Where a SMILES comes first, the peptide text is derived from it. Bridges are numbered along the chain shown (N, C = ends). [ ]: non-standard residue; d: D form. The star is where a group is joined. X47 = C[C@@H]1CN(c2ccc(-c3ccc(Cl)cc3C[C@@H](C(=O)[*:2])N(C)[*:1])cc2)C[C@H](C)N1C; X74 = C[C@@H]1CN(c2ccc(-c3ccc(Cl)cc3C[C@@H](C(=O)[*:2])N(C)[*:1])cc2)C[C@@H](C)O1; X39 = CN1CCC(n2cc(-c3ccc(-c4ccc(Cl)cc4C[C@@H](C(=O)[*:2])N(C)[*:1])cc3)cn2)CC1; X34 = CN1CC(N2CCN(c3ccc(-c4ccc(Cl)cc4C[C@@H](C(=O)[*:2])N(C)[*:1])cc3)CC2)C1; NMePhe(2-(4-MorPh),5-Cl) = CN[C@@H](Cc1cc(Cl)ccc1-c1ccc(N2CCOCC2)cc1)C(=O)O; X78 = CN1CCN(C2(c3ccc(-c4ccc(Cl)cc4C[C@@H](C(=O)[*:2])N(C)[*:1])cc3)CC2)CC1; X92 = CN1CCN(C(=O)c2ccc(-c3ccc(Cl)cc3C[C@@H](C(=O)[*:2])N(C)[*:1])cc2)CC1; X59 = CC(c1ccc(-c2ccc(Cl)cc2C[C@@H](C(=O)[*:2])N(C)[*:1])cc1)N1CCOCC1; X37 = CN1CCN(c2ccc(-c3ccc(F)cc3C[C@@H](C(=O)[*:2])N(C)[*:1])cn2)CC1; NMehhhLys(Me) = CN([C@@H](CCCCCCCN(C)[*:3])C(=O)[*:2])[*:1]; X96 = CN([C@@H](Cc1cc(Cl)cc2ccn(C)c12)C(=O)[*:2])[*:1]; X41 = CN([C@@H](Cc1cc(Cl)cc2c1ccn2C)C(=O)[*:2])[*:1]; cBuCO(3,3-F2-1-CF3) = O=C(C1(C(F)(F)F)CC(F)(F)C1)*; Pro(trans-4-F) = O=C(O)[C@@H]1C[C@@H](F)CN1; Gly(cPr) = N[C@H](C(=O)O)C1CC1; X102 = C[C@]1(C(=O)*)CC1(F)F; X77 = CC(F)(C(=O)*)C(F)(F)F; X9 = C[C@@]1(C(=O)*)CC1(F)F; X20 = O=C(C1(Cl)CC1)*

What was measured:
[1] = test system: WI-38 cells; assay: MTT proliferation assay, WI-38; format: cell-based; settings: 3 days compound exposure, 1:3 serial dilution starting at 10 μM;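 further: Eight- or ten-point dilution series, with exposure length chosen to span about three to four cell doublings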
[2] = test system: NCI-H1048 cells; assay: MTT proliferation assay, NCI-H1048; format: cell-based; settings: 5 days compound exposure, 1:3 serial dilution starting at 10 μM;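 further: Dose-response in 96-well plates over 8 or 10 concentration points, with exposure spanning 3-4 cell doublings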
[3] = test system: OVCAR3 cells; assay: MTT proliferation assay, OVCAR3; format: cell-based; settings: 5 days compound exposure, 1:3 serial dilution starting at 10 μM;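 further: compound given as an 8- or 10-point series, one day after plating, with exposure covering roughly 3-4 cell doublings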
[4] = biological target: T1, CyclinA2/CDK2 (Homo sapiens, UniProt P20248); assay: Fluorescence Polarization (FP) competitive binding assay, Cyclin A2/Cdk2; settings: 8 nM Cyclin A2/Cdk2, 2 nM FAM probe; average of 2-3 independent experiments; read-out: Cyclin A FP IC50;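 further: plates equilibrated two hours at room temperature before polarization reading, IC50 fitted from eight-concentration compound titration curves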
T1 construct: purchased CRELUX Protein Services

[5] = biological target: T2, CyclinE1/CDK2 (Homo sapiens, UniProt P24864); assay: Fluorescence Polarization (FP) competitive binding assay, Cyclin E1/Cdk2; settings: 10 nM Cyclin E1/Cdk2, 2 nM FAM probe; average of 2-3 independent experiments; read-out: Cyclin E FP IC50;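 further: readings taken after two-hour equilibration at room temperature in HEPES buffer with NaCl, DTT, NP-40 and BSA, IC50 fitted from eight-concentration serial dilution series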
T2 construct: purchased Eurofins, discovery 14-475

[6] = biological target: T3, CyclinB1/CDK1 (Homo sapiens, UniProt P14635); assay: Fluorescence Polarization (FP) competitive binding assay, Cyclin B1/Cdk1; settings: 10 nM Cyclin B1/Cdk1, 2 nM FAM probe; average of 2-3 independent experiments; read-out: Cyclin B FP IC50;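 further: fluorescence polarization read after equilibration at room temperature, with IC50 taken from serially diluted dose-response curves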
T3 construct: purchased Eurofins, discovery 14-450

| Structure (SMILES) | GI50 [1] [nM] | GI50 [2] [nM] | GI50 [3] [nM] | IC50 [4] [nM] | IC50 [5] [nM] | IC50 [6] [nM] |
| --- | --- | --- | --- | --- | --- | --- |
| CC(C)C[C@@H]1NC(=O)[C@@H](N(C)C(=O)[C@@H](NC(=O)[C@@H]2C[C@@H](F)CN2C(=O)C(C)(F)C(F)(F)F)C2CC2)CCCCCCCN(C)C(=O)[C@H](Cc2cc(Cl)ccc2-c2ccc(N3CCOCC3)cc2)N(C)C1=O (stereo partly drawn) [Example 377] (X77-[Pro(trans-4-F)][Gly(cPr)][NMehhhLys(Me)]L[NMePhe(2-(4-MorPh),5-Cl)]; lactam 3-C) | 8160 | 10 | 10 | 20 | 340 | 20 |
| CC(C)C[C@@H]1NC(=O)[C@@H](N(C)C(=O)[C@@H](NC(=O)[C@@H]2C[C@@H](F)CN2C(=O)C2(C(F)(F)F)CC(F)(F)C2)C2CC2)CCCCCCCN(C)C(=O)[C@H](Cc2cc(Cl)ccc2-c2ccc(-c3cnn(C4CCN(C)CC4)c3)cc2)N(C)C1=O [Example 380] ({cBuCO(3,3-F2-1-CF3)}-[Pro(trans-4-F)][Gly(cPr)][NMehhhLys(Me)]L[X39]; lactam 3-C) | 1170 | 20 | 30 | 30 | 2170 | 20 |
| CC(C)C[C@@H]1NC(=O)[C@@H](N(C)C(=O)[C@@H](NC(=O)[C@@H]2C[C@@H](F)CN2C(=O)C2(C(F)(F)F)CC(F)(F)C2)C2CC2)CCCCCCCN(C)C(=O)[C@H](Cc2cc(Cl)ccc2-c2ccc(C3(N4CCN(C)CC4)CC3)cc2)N(C)C1=O [Example 381] ({cBuCO(3,3-F2-1-CF3)}-[Pro(trans-4-F)][Gly(cPr)][NMehhhLys(Me)]L[X78]; lactam 3-C) | 2300 | 20 | 40 | 20 | 1310 | 20 |
| CC(C)C[C@@H]1NC(=O)[C@@H](N(C)C(=O)[C@@H](NC(=O)[C@@H]2C[C@@H](F)CN2C(=O)C2(C(F)(F)F)CC(F)(F)C2)C2CC2)CCCCCCCN(C)C(=O)[C@H](Cc2cc(Cl)ccc2-c2ccc(N3CCN(C4CN(C)C4)CC3)cc2)N(C)C1=O [Example 383, (2S,4R)—N—((S)-2-(((3S,6S,9S)-3-((4-chloro-4′-(4-(1-methylazetidin-3-yl)piperazin-1-yl)-[1,1′-biphenyl]-2-yl)methyl)-6-isobutyl-1,4-dimethyl-2,5,8-trioxo-1,4,7-triazacyclohexadecan-9-yl)(methyl)amino)-1-cyclopropyl-2-oxoethyl)-1-(3,3-difluoro-1-(trifluoromethyl)cyclobutane-1-carbonyl)-4-fluoropyrrolidine-2-carboxamide] ({cBuCO(3,3-F2-1-CF3)}-[Pro(trans-4-F)][Gly(cPr)][NMehhhLys(Me)]L[X34]; lactam 3-C) | 2700 | 10 | 10 | 20 | 530 | 20 |
| CC(C)C[C@@H]1NC(=O)[C@@H](N(C)C(=O)[C@@H](NC(=O)[C@@H]2C[C@@H](F)CN2C(=O)C2(C(F)(F)F)CC(F)(F)C2)C2CC2)CCCCCCCN(C)C(=O)[C@H](Cc2cc(Cl)ccc2-c2ccc(N3C[C@@H](C)N(C)[C@@H](C)C3)cc2)N(C)C1=O [Example 384] ({cBuCO(3,3-F2-1-CF3)}-[Pro(trans-4-F)][Gly(cPr)][NMehhhLys(Me)]L[X47]; lactam 3-C) | 2210 | 10 | 10 | 20 | 590 | 20 |
| CCN(C(=O)[C@@H](NC(=O)[C@@H]1C[C@@H](F)CN1C(=O)C1(C(F)(F)F)CC(F)(F)C1)C1CC1)[C@H]1CCCCCCCN(C)C(=O)[C@H](Cc2cc(Cl)ccc2-c2ccc(N3CCN(C)CC3)cc2)N(C)C(=O)[C@H](CC(C)C)NC1=O [Example 388] | 3500 | 20 | 20 | 20 | 3930 | 20 |
| CC(C)C[C@@H]1NC(=O)[C@@H](N(C)C(=O)[C@@H](NC(=O)[C@@H]2C[C@@H](F)CN2C(=O)C2(C(F)(F)F)CC(F)(F)C2)C2CC2)CCCCCCCN(C)C(=O)[C@H](Cc2cc(Cl)ccc2-c2ccc(N3C[C@@H](C)O[C@H](C)C3)cc2)N(C)C1=O [Example 389] ({cBuCO(3,3-F2-1-CF3)}-[Pro(trans-4-F)][Gly(cPr)][NMehhhLys(Me)]L[X74]; lactam 3-C) | 17600 | 20 | 10 | 20 | 790 | 20 |
| CC(C)C[C@@H]1NC(=O)[C@@H](N(C)C(=O)[C@@H](NC(=O)[C@@H]2C[C@@H](F)CN2C(=O)C2(C(F)(F)F)CC(F)(F)C2)C2CC2)CCCCCCCN(C)C(=O)[C@H](Cc2cc(Cl)ccc2-c2ccc(C(=O)N3CCN(C)CC3)cc2)N(C)C1=O [Example 390] ({cBuCO(3,3-F2-1-CF3)}-[Pro(trans-4-F)][Gly(cPr)][NMehhhLys(Me)]L[X92]; lactam 3-C) | 9240 | 30 | 20 | 20 | 870 | 20 |
| CC(C)C[C@@H]1NC(=O)[C@@H](N(C)C(=O)[C@@H](NC(=O)[C@@H]2C[C@@H](F)CN2C(=O)C2(C(F)(F)F)CC(F)(F)C2)C2CC2)CCCCCCCN(C)C(=O)[C@H](Cc2cc(F)ccc2-c2ccc(N3CCN(C)CC3)nc2)N(C)C1=O [Example 391] ({cBuCO(3,3-F2-1-CF3)}-[Pro(trans-4-F)][Gly(cPr)][NMehhhLys(Me)]L[X37]; lactam 3-C) | 7820 | 10 | 10 | 30 | 610 | 20 |
| CC(C)C[C@@H]1NC(=O)[C@@H](N(C)C(=O)[C@@H](NC(=O)[C@@H]2C[C@@H](F)CN2C(=O)C2(C(F)(F)F)CC(F)(F)C2)C2CC2)CCCCCCCN(C)C(=O)[C@H](Cc2cc(Cl)cc3ccn(C)c23)N(C)C1=O [Example 392, (2S,4R)—N—((S)-2-(((3S,6S,9S)-3-((5-chloro-1-methyl-1H-indol-7-yl)methyl)-6-isobutyl-1,4-dimethyl-2,5,8-trioxo-1,4,7-triazacyclohexadecan-9-yl)(methyl)amino)-1-cyclopropyl-2-oxoethyl)-1-(3,3-difluoro-1-(trifluoromethyl)cyclobutane-1-carbonyl)-4-fluoropyrrolidine-2-carboxamide] ({cBuCO(3,3-F2-1-CF3)}-[Pro(trans-4-F)][Gly(cPr)][NMehhhLys(Me)]L[X96]; lactam 3-C) | 14700 | 170 | 170 | 230 | 830 | 20 |
| CC(C)C[C@@H]1NC(=O)[C@@H](N(C)C(=O)[C@@H](NC(=O)[C@@H]2C[C@@H](F)CN2C(=O)C2(C(F)(F)F)CC(F)(F)C2)C2CC2)CCCCCCCN(C)C(=O)[C@H](Cc2cc(Cl)cc3c2ccn3C)N(C)C1=O [Example 393] ({cBuCO(3,3-F2-1-CF3)}-[Pro(trans-4-F)][Gly(cPr)][NMehhhLys(Me)]L[X41]; lactam 3-C) | 13700 | 1790 | 1310 | 6670 | 1690 | 47 |
| CC(C)C[C@@H]1NC(=O)C(N(C)C(=O)[C@@H](NC(=O)[C@@H]2C[C@@H](F)CN2C(=O)C2(C(F)(F)F)CC(F)(F)C2)C2CC2)C/C=C\CCCCN(C)C(=O)[C@H](Cc2cc(Cl)ccc2-c2ccc(N3CCN(C)CC3)cc2)N(C)C1=O (stereo partly drawn) [Example 397] | 3560 | 10 | 10 | 20 | 260 | 20 |
| CC(C)C[C@@H]1NC(=O)[C@@H](N(C)C(=O)[C@@H](NC(=O)[C@@H]2C[C@@H](F)CN2C(=O)C2(Cl)CC2)C2CC2)CCCCCCCN(C)C(=O)[C@H](Cc2cc(Cl)ccc2-c2ccc(N3CCOCC3)cc2)N(C)C1=O [Example 398] (X20-[Pro(trans-4-F)][Gly(cPr)][NMehhhLys(Me)]L[NMePhe(2-(4-MorPh),5-Cl)]; lactam 3-C) | 3640 | 140 | 190 | 20 | 590 | 20 |
| CC(C)C[C@@H]1NC(=O)[C@@H](N(C)C(=O)[C@@H](NC(=O)[C@@H]2C[C@@H](F)CN2C(=O)[C@]2(C)CC2(F)F)C2CC2)CCCCCCCN(C)C(=O)[C@H](Cc2cc(Cl)ccc2-c2ccc(N3CCOCC3)cc2)N(C)C1=O [Example 399] (X9-[Pro(trans-4-F)][Gly(cPr)][NMehhhLys(Me)]L[NMePhe(2-(4-MorPh),5-Cl)]; lactam 3-C) | 3650 | 220 | 110 | 70 | 3000 | 20 |
| CC(C)C[C@@H]1NC(=O)[C@@H](N(C)C(=O)[C@@H](NC(=O)[C@@H]2C[C@@H](F)CN2C(=O)[C@@]2(C)CC2(F)F)C2CC2)CCCCCCCN(C)C(=O)[C@H](Cc2cc(Cl)ccc2-c2ccc(N3CCOCC3)cc2)N(C)C1=O [Example 400] (X102-[Pro(trans-4-F)][Gly(cPr)][NMehhhLys(Me)]L[NMePhe(2-(4-MorPh),5-Cl)]; lactam 3-C) | 4610 | 10 | 10 | 20 | 490 | 20 |
| CC(C)C[C@@H]1NC(=O)[C@@H](N(C)C(=O)[C@@H](NC(=O)[C@@H]2C[C@@H](F)CN2C(=O)C2(C(F)(F)F)CC(F)(F)C2)C2CC2)CCCCCCCN(C)C(=O)[C@H](Cc2cc(Cl)ccc2-c2ccc(C(C)N3CCOCC3)cc2)N(C)C1=O (stereo partly drawn) [Example 403] ({cBuCO(3,3-F2-1-CF3)}-[Pro(trans-4-F)][Gly(cPr)][NMehhhLys(Me)]L[X59]; lactam 3-C) | 3990 | 10 | 10 | 20 | 670 | 20 |
